Tests used:
[1] = system: proteins of Cyt (cytosolic fraction of liver homogenate); assay: Covalent adduct formation of NSAIDs-AG with proteins of cytosolic fraction (Cyt); assay type: binding, rat; settings: 180 μM, 6 h; for covalent adduct formation with Cyt proteins: protein 1 mg/mL, 37 °C
[2] = system: proteins of Mit (mitochondrial fraction of liver homogenate); assay: Covalent adduct formation of NSAIDs-AG with proteins of mitochondrial fraction (Mit); assay type: binding, rat; settings: 180 μM, 6 h; for covalent adduct formation with Mit proteins: protein 1 mg/mL, 37 °C
[3] = system: proteins of Nuc (nuclear fraction of liver homogenate); assay: Covalent adduct formation of NSAIDs-AG with proteins of nuclear fraction (Nuc); assay type: binding, rat; settings: 180 μM, 6 h; for covalent adduct formation with Nuc proteins: protein 1 mg/mL, 37 °C
UGT1A9 = molecular target: T1, UGT1A9 (Homo sapiens, UniProt O60656); assay: Covalent adduct formation of NSAIDs-AG with UGT1A9; assay type: binding; settings: 180 μM, UGT 3.4 μM, 6 h
T1 construct: purchased Corning, Inc
T1 sequence (O60656 26-530): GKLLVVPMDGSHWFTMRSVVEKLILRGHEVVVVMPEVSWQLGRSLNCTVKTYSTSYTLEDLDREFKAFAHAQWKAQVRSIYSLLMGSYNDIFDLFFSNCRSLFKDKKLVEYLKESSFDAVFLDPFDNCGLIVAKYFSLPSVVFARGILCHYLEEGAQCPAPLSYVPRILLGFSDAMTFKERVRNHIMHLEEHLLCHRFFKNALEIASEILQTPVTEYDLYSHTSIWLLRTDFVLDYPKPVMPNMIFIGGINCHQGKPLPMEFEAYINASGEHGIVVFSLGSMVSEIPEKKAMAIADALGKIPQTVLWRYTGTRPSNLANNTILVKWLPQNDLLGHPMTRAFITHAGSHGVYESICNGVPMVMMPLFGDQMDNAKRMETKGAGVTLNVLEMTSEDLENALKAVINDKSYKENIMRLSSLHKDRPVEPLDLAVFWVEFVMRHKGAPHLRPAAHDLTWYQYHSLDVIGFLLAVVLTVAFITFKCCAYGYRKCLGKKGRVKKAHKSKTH
Protocol: (§1) The concentrations of UGT were set at 3.4 μM by the preliminary experiments on the linearity of covalent adduct formation. The covalent adduct formation of NSAIDs-AG with organelle proteins and UGT was determined according to previous reports on NSAIDs-AG with albumin with some modifications. After a deproteinization of the reaction mixture, methanol/diethyl ether (3:1) was added to the pellet. […] The concentrations of the parent NSAIDs were measured using liquid chromatography-tandem mass spectrometry (LC-MS/MS). Aliquots of 10 μL were injected into the LC-MS/MS system. The LC-MS/MS equipment consisted of an LC system (UltiMate 3000 series, Thermo Fisher Scientific, Inc.) and TSQ Endura Triple Quadrupole Mass Spectrometer with electrospray ionization (Thermo Fisher Scientific, Inc.). Finnigan Xcalibur software (Thermo Fisher Scientific, Inc.) was used for data recording and analysis. Analysis was further performed using a reversed-phase column (COSMOSIL 5C18-MSII, 2.0 mm × 150 mm, 5 μm; Nacalai Tesque, Inc.). The column temperature was set to 40 °C, and the autosampler was maintained at 10 °C. The mobile phase (A; 30% methanol in 8.5 mM ammonium formate and 0.0075% formic acid, and B; 90% methanol in 8.5 mM ammonium formate and 0.0075% formic acid) was pumped at a flow rate of 0.2 mL/min. The initial mobile phase composition was maintained at 30% mobile phase B for 1 min, changed linearly to 90% mobile phase B from 1 to 8 min, maintained for 1 min, returned to 30% mobile phase B from 9 to 10 min, and maintained for 1 min for chromatographic column equilibrium. The MS scan was operated in positive ionization mode for DIC, MEF, ZOM, KET, and NAP, or negative ionization mode, for FLU. […] The concentrations of NSAIDs were determined from a single-point calibration in every assay for NSAIDs after confirmation of linearity between area and concentrations of NSAIDs.

UGT2B7 = molecular target: T2, UGT2B7 (Homo sapiens, UniProt P16662); assay: Covalent adduct formation of NSAIDs-AG with UGT2B7; assay type: binding; settings: 180 μM, UGT 3.4 μM, 6 h; for covalent adduct formation with UGT2B7 compared with the other diastereomer: R vs S diastereomer
T2 construct: purchased Corning, Inc
T2 sequence (P16662 24-529): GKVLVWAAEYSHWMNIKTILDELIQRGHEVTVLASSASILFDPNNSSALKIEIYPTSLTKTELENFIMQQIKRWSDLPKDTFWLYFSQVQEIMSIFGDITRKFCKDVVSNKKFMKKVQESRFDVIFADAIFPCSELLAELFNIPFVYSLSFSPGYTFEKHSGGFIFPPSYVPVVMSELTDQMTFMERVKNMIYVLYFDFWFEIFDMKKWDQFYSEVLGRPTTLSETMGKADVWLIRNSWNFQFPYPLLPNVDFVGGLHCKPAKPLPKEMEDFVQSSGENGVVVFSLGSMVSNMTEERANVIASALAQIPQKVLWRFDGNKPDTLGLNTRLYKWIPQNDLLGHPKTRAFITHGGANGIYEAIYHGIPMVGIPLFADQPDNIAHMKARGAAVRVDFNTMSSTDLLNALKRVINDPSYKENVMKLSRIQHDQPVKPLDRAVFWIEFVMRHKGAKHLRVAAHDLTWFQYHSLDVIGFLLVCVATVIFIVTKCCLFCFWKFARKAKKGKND
Protocol: (§2) The concentrations of UGT were set at 3.4 μM by the preliminary experiments on the linearity of covalent adduct formation. The covalent adduct formation of NSAIDs-AG with organelle proteins and UGT was determined according to previous reports on NSAIDs-AG with albumin with some modifications. After a deproteinization of the reaction mixture, methanol/diethyl ether (3:1) was added to the pellet. […] The concentrations of the parent NSAIDs were measured using liquid chromatography-tandem mass spectrometry (LC-MS/MS). Aliquots of 10 μL were injected into the LC-MS/MS system. The LC-MS/MS equipment consisted of an LC system (UltiMate 3000 series, Thermo Fisher Scientific, Inc.) and TSQ Endura Triple Quadrupole Mass Spectrometer with electrospray ionization (Thermo Fisher Scientific, Inc.). Finnigan Xcalibur software (Thermo Fisher Scientific, Inc.) was used for data recording and analysis. Analysis was further performed using a reversed-phase column (COSMOSIL 5C18-MSII, 2.0 mm × 150 mm, 5 μm; Nacalai Tesque, Inc.). The column temperature was set to 40 °C, and the autosampler was maintained at 10 °C. The mobile phase (A; 30% methanol in 8.5 mM ammonium formate and 0.0075% formic acid, and B; 90% methanol in 8.5 mM ammonium formate and 0.0075% formic acid) was pumped at a flow rate of 0.2 mL/min. The initial mobile phase composition was maintained at 30% mobile phase B for 1 min, changed linearly to 90% mobile phase B from 1 to 8 min, maintained for 1 min, returned to 30% mobile phase B from 9 to 10 min, and maintained for 1 min for chromatographic column equilibrium. The MS scan was operated in positive ionization mode for DIC, MEF, ZOM, KET, and NAP, or negative ionization mode, for FLU. The conditions for electrospray ionization were set at 3500 V spray voltage for positive ionization mode and 2500 V spray voltage for negative ionization mode at 400 °C capillary temperature, and 300 °C vaporizer temperature with 40 arbitrary units of nitrogen sheath gas and 10 arbitrary units of auxiliary gas. The MS scan was operated in the positive or negative ionization mode. The selected reaction monitoring (SRM) mode was used, with argon as the collision gas at 1.5 mTorr. The mass resolution was set at 0.7 full-width at half-height (unit resolution). SRM transitions (precursor and product ions) were mass to charge ratios of (m/z) 296 > 214 for DIC (positive ionization mode), 294 > 250 for DIC (negative ionization mode), 242 > 224 for MEF, 292 > 139 for ZOM, 243 > 198 for R- and S-FLU, 255 > 209 for R- and S-KET, 231 > 185 for R- and S-NAP, and 302 > 220 for DIC-d4. The collision energies were 15 V for DIC (negative ionization mode), ZOM, MEF, FLU, KET, and NAP; 35 V for DIC (positive ionization mode); and DIC-d4. The concentrations of NSAIDs were determined from a single-point calibration in every assay for NSAIDs after confirmation of linearity between area and concentrations of NSAIDs.

[4] = parameters: method as in PMID 20606003, PMID 1673415; settings: phosphate buffers (pH 7.4); cited from earlier work
[5] = system: proteins of Mic (microsomal fraction of liver homogenate); assay: Covalent adduct formation of NSAIDs-AG with proteins of microsomal fraction (Mic); settings: for covalent adduct formation with Mic proteins: protein 1 mg/mL
UGT2B4 = molecular target: T3, UGT2B4 (Homo sapiens, UniProt P06133); assay: Covalent adduct formation of NSAIDs-AG with UGT2B4; assay type: binding; settings: 180 μM, UGT 3.4 μM, 6 h
T3 construct: purchased Corning, Inc
T3 sequence (P06133 24-528): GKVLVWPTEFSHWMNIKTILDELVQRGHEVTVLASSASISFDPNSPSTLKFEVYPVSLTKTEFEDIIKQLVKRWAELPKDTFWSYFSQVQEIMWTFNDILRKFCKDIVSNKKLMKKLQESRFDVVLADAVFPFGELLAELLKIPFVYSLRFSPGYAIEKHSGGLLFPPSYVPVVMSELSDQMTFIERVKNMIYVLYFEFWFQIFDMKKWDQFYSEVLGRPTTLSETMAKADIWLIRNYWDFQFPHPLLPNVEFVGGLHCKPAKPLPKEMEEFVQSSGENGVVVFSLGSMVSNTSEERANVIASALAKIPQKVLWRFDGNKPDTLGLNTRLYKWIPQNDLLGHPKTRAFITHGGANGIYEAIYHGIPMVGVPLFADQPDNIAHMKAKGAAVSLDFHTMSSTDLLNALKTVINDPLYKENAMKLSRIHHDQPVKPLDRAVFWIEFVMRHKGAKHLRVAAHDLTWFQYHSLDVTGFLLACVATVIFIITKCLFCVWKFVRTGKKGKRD
Protocol: as §2

UGT1A1 = molecular target: T4, UGT1A1 (Homo sapiens, UniProt P22309); assay: Covalent adduct formation of NSAIDs-AG with UGT1A1; assay type: binding; settings: R vs S diastereomer; 180 μM, UGT 3.4 μM, 6 h
T4 construct: purchased Corning, Inc
T4 sequence (P22309 26-533): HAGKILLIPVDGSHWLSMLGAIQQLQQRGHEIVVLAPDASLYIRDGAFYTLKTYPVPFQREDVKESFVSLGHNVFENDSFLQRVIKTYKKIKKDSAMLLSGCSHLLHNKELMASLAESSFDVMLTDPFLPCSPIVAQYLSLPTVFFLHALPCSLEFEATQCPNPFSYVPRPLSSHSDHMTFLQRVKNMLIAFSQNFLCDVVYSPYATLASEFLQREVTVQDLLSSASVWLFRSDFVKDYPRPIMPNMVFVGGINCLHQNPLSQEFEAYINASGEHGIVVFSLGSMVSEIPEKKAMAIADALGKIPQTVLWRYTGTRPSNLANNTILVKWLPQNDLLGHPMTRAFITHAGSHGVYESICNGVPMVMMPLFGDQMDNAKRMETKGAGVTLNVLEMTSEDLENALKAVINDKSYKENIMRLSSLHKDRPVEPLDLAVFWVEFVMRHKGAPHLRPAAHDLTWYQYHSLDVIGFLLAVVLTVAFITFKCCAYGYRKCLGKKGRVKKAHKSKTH
Protocol: as §1

covalent adduct formation with Cyt proteins [1]	covalent adduct formation with Mit proteins [2]	covalent adduct formation with Nuc proteins [3]	covalent adduct formation with Mic proteins ([5]; 180 μM, 6 h, 37 °C)	Structure (SMILES)	amounts of covalent adducts with UGT2B (UGT2B4) relative to UGT1A isoforms (UGT2B4)	amounts of covalent adducts with UGT2B (UGT2B7) relative to UGT1A isoforms (UGT2B7)	covalent adduct formation with UGT2B7 compared with the other diastereomer (UGT2B7)	other results
formed covalent adducts	formed covalent adducts	formed covalent adducts	formed covalent adducts	O=C(Cc1ccccc1Nc1c(Cl)cccc1Cl)O[C@@H]1O[C@H](C(=O)O)[C@@H](O)[C@H](O)[C@H]1O [DIC-AG]	–	–	–	covalent adducts with organelle proteins (Cyt) relative to R-KET-AG ([1]; 1 mg/mL): approximately twice as high; covalent adducts with organelle proteins (Mit) relative to R-KET-AG ([2]; 1 mg/mL): approximately twice as high; covalent adducts with organelle proteins (Nuc) relative to R-KET-AG ([3]; 1 mg/mL): approximately twice as high; capacity to form covalent adducts with UGT1A9 relative to mefenamic acid-AG (UGT1A9): approximately 10 times; amounts of covalent adducts with UGT2B7 compared with UGT1A9 (UGT2B7): significantly lower amounts of covalent adducts; capacity to form covalent adducts with UGT2B7 relative to mefenamic acid-AG (UGT2B7): approximately 10 times; covalent adduct formation with UGT2B7 (UGT2B7; 37 °C): higher amounts of covalent adducts; half-lives in buffers [4]: relatively short half-lives; covalent adducts with organelle proteins (Mic) relative to R-KET-AG ([5]; 180 μM, 1 mg/mL, 6 h): approximately twice as high; number of covalent adducts with the proteins of Mic, effect of concentration and incubation time ([5]; DIC-AG 120-600 μM for 6 h, 180 μM for 1-24 h, Mic 1 mg/mL, 37 °C): increased in a concentration- and time-dependent manner
–	–	–	–	CC(C(=O)OC1OC(C(=O)O)C(O)C(O)C1O)c1ccc(-c2ccccc2)c(F)c1 (stereo not drawn) [R-FLU-AG]	relatively higher amounts of covalent adducts	relatively higher amounts of covalent adducts	–	–
formed covalent adducts	formed covalent adducts	formed covalent adducts	formed covalent adducts	CC(C(=O)O[C@@H]1O[C@H](C(=O)O)[C@@H](O)[C@H](O)[C@H]1O)c1cccc(C(=O)c2ccccc2)c1 (stereo partly drawn) [KET-AG]	–	–	remarkably stereoselective formation of a covalent adduct	covalent adduct formation with UGT2B4 compared with the other diastereomer (UGT2B4; R vs S diastereomer): remarkably stereoselective formation of a covalent adduct
–	–	–	–	COc1ccc2cc(C(C)C(=O)OC3OC(C(=O)O)C(O)C(O)C3O)ccc2c1 (stereo not drawn) [R-NAP-AG]	relatively higher amounts of covalent adducts	relatively higher amounts of covalent adducts	significantly more covalent adducts	covalent adduct formation with UGT1A1 compared with the other diastereomer (UGT1A1): significantly more covalent adducts; covalent adduct formation with UGT1A9 compared with the other diastereomer (UGT1A9; R vs S diastereomer): significantly more covalent adducts
